Measured values taken from ChEMBL document CHEMBL5375968, “Peptide TK-HR from the Skin of Chinese Folk Medicine Frog Hoplobatrachus Rugulosus Accelerates Wound Healing via the Activation of the Neurokinin-1 Receptor” (J Med Chem, 2023).
The source made the active and inactive calls. The rule behind the calls is not given here.

Columns and labels:
RAW264.7 [1] = test: Induction of phagocytosis in mouse RAW264.7 cells cultured with Escherichia coli ATCC 25922 assessed as number of engulfed bacteria at 5 uM incubated for 24 hrs followed by bacterial exposure measured after 1 hr by plate counting method (reference value: 225); type: functional; details: time 25 hrs
Pseudomonas aeruginosa = test: Antimicrobial activity against Pseudomonas aeruginosa ATCC 27853 assessed as microbial growth inhibition at 100 uM; type: functional, organism-based
[2] = Induction of wound healing in BALB/c mouse model of full-thickness wounds at 100 ug/ml, TOP bid measured after 6 days (reference value: 71.7 %); type: functional; details: dose 100 µg/ml, time 6 day
RAW264.7 [3] = test: Induction of TNF-alpha expression in mouse RAW264.7 cells incubated for 24 hrs by ELISA; type: functional, cell-based; details: dose 2.5-20 µM
RAW264.7 [4] = test: Upregulation of phosphorylated ERK level in Aprepitant-treated mouse RAW264.7 cells at 2.5 to 20 uM incubated for 4 hrs by Western blot analysis; type: functional, cell-based; details: dose 2.5-20 µM
[5] = Induction of wound healing in BALB/c mouse model of full-thickness wounds at 200 ug/ml, TOP bid measured after 8 days (reference value: 81.0 %); type: functional; details: dose 200 µg/ml, time 8 day
HaCaT [6] = test: Induction of cell migration in human HaCaT cells assessed as actin stress fiber formation at peripheral side of cytoplasmic membrane at 20 uM measured after 24 hrs by immunofluorescence microscopy; type: functional, cell-based
RAW264.7 [7] = test: Upregulation of phosphorylated p38 level in mouse RAW264.7 cells at 2.5 to 20 uM incubated for 4 hrs by Western blot analysis; type: functional, cell-based; details: dose 2.5-20 µM
[8] = Induction of wound healing in BALB/c mouse model of full-thickness wounds at 50 ug/ml, TOP bid pretreated with Aprepitant for 2 hrs followed by compound administration measured after 4 days (reference value: 50.6 %); type: functional; details: dose 50 µg/ml, time 4 day
[9] = Induction of TGF-beta1 level in mouse RAW264.7 cells at 20 uM incubated for 24 hrs by ELISA; type: functional
RAW264.7 [10] = test: Effect on total JNK level in mouse RAW264.7 cells at 2.5 to 20 uM incubated for 4 hrs by Western blot analysis; type: functional, cell-based; details: dose 2.5-20 µM
[11] = Toxicity in BALB/c mouse model of full-thickness wounds assessed as inflammatory foci in spleen at 200 ug/ml, TOP bid measured upto 8 days by H and E staining based analysis; type: tissue-based; details: in vivo, topical_or_ocular, 192 h, dose 200 µg/ml, time < 8 day
Mus musculus [12] = species on record: Mus musculus; test: Induction of wound healing in BALB/c mouse model of full-thickness wounds assessed as parallel alignment of collagen fibers at 50 to 200 ug/ml, TOP bid measured after 8 days by Masson's Trichome staining based analysis; type: functional; details: dose 50-200 µg/ml, time 8.0 day
RAW264.7 [13] = test: (§1) Induction of phagocytosis in mouse RAW264.7 cells cultured with Escherichia coli ATCC 25922 assessed as number of surviving engulfed bacteria at 20 uM incubated for 24 hrs followed by bacterial exposure for 1 hr and further treated with gentamycin for 2 hrs by plate counting method (reference value: 37); type: functional
[14] = Induction of wound healing in BALB/c mouse model of full-thickness wounds at 50 ug/ml, TOP bid measured after 8 days (reference value: 81.0 %); type: functional; details: dose 50 µg/ml, time 8 day
RAW264.7 [15] = test: Induction of phagocytosis in mouse RAW264.7 cells assessed as increase in neutral red dye uptake by measuring optical density at 540 nm at 10 uM incubated for 24 hrs followed by dye addition measured after 4 hrs by absorbance based assay (reference value: 0.073); type: functional; details: time 28 hrs
[16] = Toxicity in BALB/c mouse model of full-thickness wounds assessed as inflammatory foci in kidney at 200 ug/ml, TOP bid measured upto 8 days by H and E staining based analysis; type: tissue-based; details: in vivo, topical_or_ocular, 192 h, dose 200 µg/ml, time < 8 day
RAW264.7 [17] = test: Induction of phagocytosis in mouse RAW264.7 cells assessed as increase in neutral red dye uptake by measuring optical density at 540 nm at 20 uM incubated for 24 hrs followed by dye addition measured after 4 hrs by absorbance based assay (reference value: 0.073); type: functional; details: time 28 hrs
Mus musculus [18] = species on record: Mus musculus; test: Induction of wound healing in BALB/c mouse model of full-thickness wounds assessed as increase in recruitment of M2-type macrophages in wound skin at 50 ug/ml, TOP bid measured after 4 days by IHC analysis; type: functional; details: dose 50.0 µg/ml, time 4.0 day
[19] = Toxicity in BALB/c mouse model of full-thickness wounds assessed as animal death at 50 to 200 ug/ml, TOP bid measured upto 8 days; details: in vivo, topical_or_ocular, 192 h, dose 50-200 µg/ml, time < 8 day
Mus musculus [20] = species on record: Mus musculus; test: Induction of wound healing in BALB/c mouse model of full-thickness wounds assessed as increase in phosphorylated Smad2 level in wound skin at 50 ug/ml, TOP bid measured after 4 days by Western blot analysis; type: functional; details: dose 50.0 µg/ml, time 4.0 day
Mus musculus [21] = species on record: Mus musculus; test: Induction of wound healing in BALB/c mouse model of full-thickness wounds assessed as increase in TGF-1beta production in wound skin at 50 to 200 ug/ml, TOP bid measured after 8 days by ELISA; type: functional; details: dose 50-200 µg/ml, time 8.0 day
HaCaT [22] = test: Induction of cell migration in Mitomycin C-treated human HaCaT cells assessed as healing rate at 20 uM measured after 24 hrs by scratch healing assay (reference value: 21.3 %); type: functional
HaCaT [23] = test: Induction of cell migration in human HaCaT cells assessed as formation of cytoplasmic protrusions at 20 uM measured after 24 hrs by immunofluorescence microscopy; type: functional, cell-based
Neutrophil = test: Induction of cell migration in BALB/c mouse neutrophils incubated for 8 hrs by transwell migration assay; type: functional, cell-based; details: dose 5-40 µM
HaCaT [24] = test: Induction of cell migration in Mitomycin C-treated human HaCaT cells assessed as healing rate at 20 uM measured after 48 hrs by scratch healing assay (reference value: 25.7 %); type: functional
RAW264.7 [25] = test: as §1, with “5” for “20”; type: functional
Mus musculus [26] = species on record: Mus musculus; test: Induction of wound healing in BALB/c mouse model of full-thickness wounds assessed as increase in number of blood vessels in wound skin at 50 ug/ml, TOP bid measured after 4 days by IHC analysis; type: functional; details: dose 50.0 µg/ml, time 4.0 day
HUVEC = test: Angiogenic activity in HUVEC cells assessed as increase in tube formation at 20 uM measured for 4 hrs by microscopic analysis relative to control; type: functional, Homo sapiens
Mus musculus [27] = species on record: Mus musculus; test: Induction of wound healing in BALB/c mouse model of full-thickness wounds assessed as dense arrangement of collagen fibers at 50 to 200 ug/ml, TOP bid measured after 8 days by Masson's Trichome staining based analysis; type: functional; details: dose 50-200 µg/ml, time 8.0 day
RAW264.7 [28] = test: Upregulation of phosphorylated JNK level in Aprepitant-treated mouse RAW264.7 cells at 2.5 to 20 uM incubated for 4 hrs by Western blot analysis; type: functional, cell-based; details: dose 2.5-20 µM
Staphylococcus aureus = test: Antimicrobial activity against Staphylococcus aureus ATCC 25923 assessed as microbial growth inhibition at 100 uM; type: functional, organism-based
Mus musculus [29] = species on record: Mus musculus; test: Induction of wound healing in BALB/c mouse model of full-thickness wounds assessed as alignment of collagen fibers close to normal skin at 50 to 200 ug/ml, TOP bid measured after 8 days by Masson's Trichome staining based analysis; type: functional; details: dose 50-200 µg/ml, time 8.0 day

H-KPNPDRFYGLM-NH2
Activity (RAW264.7 [1]): 302 | Activity (Pseudomonas aeruginosa): inactive | Activity [2]: 93.9% | Activity (RAW264.7 [3]): Dose-Dependent Effect | Activity (RAW264.7 [4]): inactive | Activity [5]: 100% | Activity (HaCaT [6]): Active | Activity (RAW264.7 [7]): Active | Activity [8]: 56.1% | Activity [9]: 119.3 pg/mL | Activity (RAW264.7 [10]): inactive | Activity [11]: Non-Toxic | Activity (Mus musculus [12]): Active | Activity (RAW264.7 [13]): 20 | Activity [14]: 93.1% | OD (RAW264.7 [15]): 0.107 | Activity [16]: Non-Toxic | OD (RAW264.7 [17]): 0.109 | Activity (Mus musculus [18]): Active | Activity [19]: Non-Toxic | Activity (Mus musculus [20]): Active | Activity (Mus musculus [21]): inactive | Activity (HaCaT [22]): 40.2% | Activity (HaCaT [23]): Active | Activity (Neutrophil): Dose-Dependent Effect | Activity (HaCaT [24]): 53% | Activity (RAW264.7 [25]): 29 | Activity (Mus musculus [26]): Active | Activity (HUVEC): 181.4% | Activity (Mus musculus [27]): Active | Activity (RAW264.7 [28]): inactive | Activity (Staphylococcus aureus): inactive | Activity (Mus musculus [29]): Active
